Reference: publication PMC10778198, “First-in-Human Dose-Escalation Study of the Novel Oral Depsipeptide Class I-Targeting HDAC Inhibitor Bocodepsin (OKI-179) in Patients with Advanced Solid Tumors” (Cancers, 2023)

Test system: patients with advanced solid tumors
Assay: phase I dose escalation: safety, DLT, MTD, RP2D (CTCAE v. 5)
Format: in vivo
Conditions: 4:3
From the text: Subsequent dosing cohorts were enrolled using a standard 3 + 3 design.
If any patient in any cohort of three patients developed a DLT during cycle 1, an additional three patients were recruited to expand the cohort to up to six evaluable patients. If two or more patients in any expanded cohort developed a DLT, this dose was considered non-tolerated, and dose escalation was discontinued. The MTD was defined as the highest dose level for which no more than one of six patients experienced a DLT.
Patients were continuously evaluated for adverse events throughout the study using the Common Terminology Criteria of Adverse Events (CTCAE v. 5). The patients underwent a clinical history and physical examination, an ECOG PS, a complete blood count (CBCs), chemistry, coagulation studies, urinalysis, a serum pregnancy test (as applicable), a triplicate ECG, an ophthalmology examination, and baseline tumor assessment at screening. During cycle 1, weekly history and physical examination, CBC, chemistry, coagulation parameters, urinalysis, and triplicate ECGs were performed; in subsequent cycles, weekly labs were limited to a CBC. Repeat ophthalmology examinations were performed at cycle 3, day 1, and at the end of treatment. Repeat tumor assessment was performed every 2 cycles (6 weeks) in accordance with RECIST 1.1.

Structure (SMILES): CC(C)[C@H](N)C(=O)SCC/C=C/[C@@H]1CC(=O)NCc2nc(cs2)C(=O)NC(C)(C)C(=O)N[C@@H](C(C)C)C(=O)O1 [OKI-179, Bocodepsin]
- TEAE: Anemia (30 mg–210 mg (n = 8), G1): 0 n (%)
- TEAE: Back pain (30 mg–210 mg (n = 8), G1): 1 (13) n (%)
- TEAE: Cough (30 mg–210 mg (n = 8), G1): 2 (25) n (%)
- TEAE: Decreased appetite (30 mg–210 mg (n = 8), G1): 3 (38) n (%)
- TEAE: Diarrhea (30 mg–210 mg (n = 8), G1): 5 (63) n (%)
- TEAE: Dyspnea (30 mg–210 mg (n = 8), G1): 2 (25) n (%)
- TEAE: ECG QT prolonged (30 mg–210 mg (n = 8), G1): 0 n (%)
- TEAE: Fatigue (30 mg–210 mg (n = 8), G1): 2 (25) n (%)
- TEAE: Headache (30 mg–210 mg (n = 8), G1): 2 (25) n (%)
- TEAE: Hypokalaemia (30 mg–210 mg (n = 8), G1): 1 (13) n (%)
- TEAE: Muscular weakness (30 mg–210 mg (n = 8), G1): 0 n (%)
- TEAE: Nasal congestion (30 mg–210 mg (n = 8), G1): 1 (13) n (%)
- TEAE: Nausea (30 mg–210 mg (n = 8), G1): 5 (63) n (%)
- TEAE: Platelet count decreased (30 mg–210 mg (n = 8), G1): 0 n (%)
- TEAE: Proteinuria (30 mg–210 mg (n = 8), G1): 0 n (%)
- TEAE: Pyrexia (30 mg–210 mg (n = 8), G1): 2 (25) n (%)
- TEAE: Vomiting (30 mg–210 mg (n = 8), G1): 4 (50) n (%)
- TEAE: Weight decreased (30 mg–210 mg (n = 8), G1): 1 (13) n (%)
- TEAE: Anemia (30 mg–210 mg (n = 8), G2): 2 (25) n (%)
- TEAE: Back pain (30 mg–210 mg (n = 8), G2): 0 n (%)
- TEAE: Cough (30 mg–210 mg (n = 8), G2): 1 (13) n (%)
- TEAE: Decreased appetite (30 mg–210 mg (n = 8), G2): 1 (13) n (%)
- TEAE: Diarrhea (30 mg–210 mg (n = 8), G2): 0 n (%)
- TEAE: Dyspnea (30 mg–210 mg (n = 8), G2): 0 n (%)
- TEAE: ECG QT prolonged (30 mg–210 mg (n = 8), G2): 0 n (%)
- TEAE: Fatigue (30 mg–210 mg (n = 8), G2): 1 (13) n (%)
- TEAE: Headache (30 mg–210 mg (n = 8), G2): 0 n (%)
- TEAE: Hypokalaemia (30 mg–210 mg (n = 8), G2): 0 n (%)
- TEAE: Muscular weakness (30 mg–210 mg (n = 8), G2): 1 (13) n (%)
- TEAE: Nausea (30 mg–210 mg (n = 8), G2): 0 n (%)
- TEAE: Platelet count decreased (30 mg–210 mg (n = 8), G2): 0 n (%)
- TEAE: Proteinuria (30 mg–210 mg (n = 8), G2): 0 n (%)
- TEAE: Pyrexia (30 mg–210 mg (n = 8), G2): 0 n (%)
- TEAE: Vomiting (30 mg–210 mg (n = 8), G2): 0 n (%)
- TEAE: Weight decreased (30 mg–210 mg (n = 8), G2): 1 (13) n (%)
- TEAE: Anemia (30 mg–210 mg (n = 8), G3): 2 (25) n (%)
- TEAE: Back pain (30 mg–210 mg (n = 8), G3): 0 n (%)
- TEAE: Cough (30 mg–210 mg (n = 8), G3): 0 n (%)
- TEAE: Decreased appetite (30 mg–210 mg (n = 8), G3): 0 n (%)
- TEAE: Diarrhea (30 mg–210 mg (n = 8), G3): 0 n (%)
- TEAE: Dyspnea (30 mg–210 mg (n = 8), G3): 0 n (%)
- TEAE: ECG QT prolonged (30 mg–210 mg (n = 8), G3): 1 (13) n (%)
- TEAE: Fatigue (30 mg–210 mg (n = 8), G3): 1 (13) n (%)
- TEAE: Headache (30 mg–210 mg (n = 8), G3): 0 n (%)
- TEAE: Hypokalaemia (30 mg–210 mg (n = 8), G3): 0 n (%)
- TEAE: Muscular weakness (30 mg–210 mg (n = 8), G3): 0 n (%)
- TEAE: Nausea (30 mg–210 mg (n = 8), G3): 0 n (%)
- TEAE: Platelet count decreased (30 mg–210 mg (n = 8), G3): 0 n (%)
- TEAE: Proteinuria (30 mg–210 mg (n = 8), G3): 0 n (%)
- TEAE: Pyrexia (30 mg–210 mg (n = 8), G3): 0 n (%)
- TEAE: Vomiting (30 mg–210 mg (n = 8), G3): 0 n (%)
- TEAE: Weight decreased (30 mg–210 mg (n = 8), G3): 0 n (%)
- TEAE: Anemia (270 mg (n = 3), G1): 0 n (%)
- TEAE: Back pain (270 mg (n = 3), G1): 0 n (%)
- TEAE: Cough (270 mg (n = 3), G1): 0 n (%)
- TEAE: Decreased appetite (270 mg (n = 3), G1): 0 n (%)
- TEAE: Diarrhea (270 mg (n = 3), G1): 0 n (%)
- TEAE: Dyspnea (270 mg (n = 3), G1): 0 n (%)
- TEAE: ECG QT prolonged (270 mg (n = 3), G1): 0 n (%)
- TEAE: Fatigue (270 mg (n = 3), G1): 1 (33) n (%)
- TEAE: Headache (270 mg (n = 3), G1): 0 n (%)
- TEAE: Hypokalaemia (270 mg (n = 3), G1): 0 n (%)
- TEAE: Muscular weakness (270 mg (n = 3), G1): 1 (33) n (%)
- TEAE: Nausea (270 mg (n = 3), G1): 1 (33) n (%)
- TEAE: Platelet count decreased (270 mg (n = 3), G1): 1 (33) n (%)
- TEAE: Proteinuria (270 mg (n = 3), G1): 0 n (%)
- TEAE: Pyrexia (270 mg (n = 3), G1): 0 n (%)
- TEAE: Vomiting (270 mg (n = 3), G1): 0 n (%)
- TEAE: Weight decreased (270 mg (n = 3), G1): 0 n (%)
- TEAE: Anemia (270 mg (n = 3), G2): 0 n (%)
- TEAE: Back pain (270 mg (n = 3), G2): 0 n (%)
- TEAE: Cough (270 mg (n = 3), G2): 0 n (%)
- TEAE: Decreased appetite (270 mg (n = 3), G2): 0 n (%)
- TEAE: Diarrhea (270 mg (n = 3), G2): 0 n (%)
